Tests used:
SSAO = target: T1, SSAO (Homo sapiens, UniProt Q16853); assay: Substrate turnover by H2O2 release, amplex red coupled fluorometric activity assay (Extended Data Fig. 3a); type: biochemical
T1 sequence (Q16853 1-763): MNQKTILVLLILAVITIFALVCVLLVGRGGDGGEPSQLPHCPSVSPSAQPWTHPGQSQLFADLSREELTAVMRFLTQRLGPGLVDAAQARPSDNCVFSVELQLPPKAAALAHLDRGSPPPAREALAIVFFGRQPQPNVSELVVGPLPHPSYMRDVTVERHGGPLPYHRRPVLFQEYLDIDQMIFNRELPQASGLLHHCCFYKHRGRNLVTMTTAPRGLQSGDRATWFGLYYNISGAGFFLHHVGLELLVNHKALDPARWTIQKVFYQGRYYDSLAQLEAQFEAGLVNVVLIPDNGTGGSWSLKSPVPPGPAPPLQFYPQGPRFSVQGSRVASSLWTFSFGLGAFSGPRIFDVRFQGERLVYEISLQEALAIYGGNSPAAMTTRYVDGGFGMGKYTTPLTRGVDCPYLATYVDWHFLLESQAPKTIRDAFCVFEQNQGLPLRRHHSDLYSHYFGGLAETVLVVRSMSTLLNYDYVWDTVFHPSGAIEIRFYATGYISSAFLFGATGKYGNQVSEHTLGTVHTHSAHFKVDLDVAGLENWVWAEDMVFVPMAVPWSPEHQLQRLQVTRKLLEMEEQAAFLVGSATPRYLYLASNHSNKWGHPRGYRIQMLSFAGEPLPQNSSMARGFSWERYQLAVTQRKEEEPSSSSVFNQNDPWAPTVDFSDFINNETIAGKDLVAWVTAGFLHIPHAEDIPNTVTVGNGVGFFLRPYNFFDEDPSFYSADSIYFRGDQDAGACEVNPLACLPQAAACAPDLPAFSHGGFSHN
Excerpt: (§1) Specifically, BAPN is oxidized by diamine oxidase (DAO) and semicarbazide-sensitive amine oxidase (SSAO)/vascular adhesion protein 1 (VAP-1) in the vasculature (Extended Data Fig. 3a), which releases hydrogen […] (H2O2) and aldehyde in humans leading to toxicity.
(§2) Data presented as mean values +/− SD. f. […] Data presented as mean values +/− SD. […] Data presented as mean values +/− SD. […] Data presented as mean values +/− SD. Ordinary one-way ANOVA for multiple comparison test performed. Source data

DAO = target: T2, DAO (Homo sapiens, UniProt P19801); assay: as above; type: biochemical
T2 sequence (P19801 20-751): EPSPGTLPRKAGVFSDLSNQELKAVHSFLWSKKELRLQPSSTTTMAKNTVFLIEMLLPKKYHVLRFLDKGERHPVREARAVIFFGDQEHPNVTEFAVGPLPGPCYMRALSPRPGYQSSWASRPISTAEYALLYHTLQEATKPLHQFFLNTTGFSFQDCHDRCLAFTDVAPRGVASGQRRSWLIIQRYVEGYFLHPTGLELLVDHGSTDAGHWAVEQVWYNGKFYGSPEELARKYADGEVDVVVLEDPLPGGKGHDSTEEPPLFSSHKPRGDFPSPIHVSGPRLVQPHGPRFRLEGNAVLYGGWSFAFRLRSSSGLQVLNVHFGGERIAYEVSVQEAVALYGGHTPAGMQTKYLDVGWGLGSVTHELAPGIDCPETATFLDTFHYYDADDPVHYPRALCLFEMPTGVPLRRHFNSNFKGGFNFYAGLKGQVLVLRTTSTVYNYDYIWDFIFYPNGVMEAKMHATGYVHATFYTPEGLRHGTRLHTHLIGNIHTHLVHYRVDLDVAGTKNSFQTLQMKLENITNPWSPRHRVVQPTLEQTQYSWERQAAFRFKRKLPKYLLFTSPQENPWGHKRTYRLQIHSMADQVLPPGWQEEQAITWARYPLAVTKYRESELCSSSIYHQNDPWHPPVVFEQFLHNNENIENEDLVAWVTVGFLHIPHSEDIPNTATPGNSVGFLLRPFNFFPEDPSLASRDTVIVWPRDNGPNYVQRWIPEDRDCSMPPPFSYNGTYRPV
Excerpt: as §1, §2

[1] = tested on: KPC CAF remodeled 3D collagen matrices; assay: Matrix stiffness by unconfined compression testing of organotypic matrices; type: cell-based, mouse; conditions: PXS-5120 100 nM, day 12
Procedure: Fig. 3 PXS-5505 inhibition of CAF remodeling in vitro. a, Quantitative PCR with reverse transcription (qRT–PCR) showing in vitro comparison of KPC CAF relative expression of lysyl oxidase family members compared to KPC CCs from the same model (n = 3 biologically independent samples). Comparisons were determined by 2^–∆∆Ct approach. b, Representative images of 3D organotypic matrix contraction assay at days 2, 6 and 12 in the absence (gray) or presence (pink) of PXS-5505 (30 µM). Scale bars, 5 mm. Comparison of measured area of matrices between control and PXS-5505 treatment groups over time (n = 3 technical samples examined over three biologically independent samples). Data are mean ± s.d. c, Concentration of immature divalent DHLNL and mature trivalent Pyr collagen crosslinks determined by LC–MS from control and PXS-5505-treated organotypic matrices at day 12 (n = 3 technical samples examined over two biologically independent samples). Data are mean ± s.d. […] Data are presented as mean ± s.d. […] Comparison of number of CCs invaded per field of view (FOV) as determined by H&E and PanCK staining (nine images taken from three technical samples from each of three biologically independent contracted matrices), normalized to control. Data are mean ± s.d. Scale bars, 100 μm. […] Source data […]

KPC CCs = assay: Cancer cell invasion into CAF-remodeled 3D organotypic matrices; type: cell-based, mouse; conditions: PXS-5120 100 nM
Procedure: Fig. 3 PXS-5505 inhibition of CAF remodeling in vitro. a, Quantitative PCR with reverse transcription (qRT–PCR) showing in vitro comparison of KPC CAF relative expression of lysyl oxidase family members compared to KPC CCs from the same model (n = 3 biologically independent samples). Comparisons were determined by 2^–∆∆Ct approach. b, Representative images of 3D organotypic matrix contraction assay at days 2, 6 and 12 in the absence (gray) or presence (pink) of PXS-5505 (30 µM). Scale bars, 5 mm. Comparison of measured area of matrices between control and PXS-5505 treatment groups over time (n = 3 technical samples examined over three biologically independent samples). Data are mean ± s.d. c, Concentration of immature divalent DHLNL and mature trivalent Pyr collagen crosslinks determined by LC–MS from control and PXS-5505-treated organotypic matrices at day 12 (n = 3 technical samples examined over two biologically independent samples). Data are mean ± s.d. […] Data are presented as mean ± s.d. […] Comparison of number of CCs invaded per field of view (FOV) as determined by H&E and PanCK staining (nine images taken from three technical samples from each of three biologically independent contracted matrices), normalized to control. Data are mean ± s.d. Scale bars, 100 μm. […] Source data
Following remodeling, 4 × 10^4 KPC CCs were seeded on top of the remodeled matrix in DMEM supplemented with 10% FBS and 1% penicillin–streptomycin and allowed to grow to confluence for 4 days, after which matrices were transferred to an air–liquid interface and CCs allowed to invade into the organotypic matrices for 12 days (Extended Data Fig. 4f). PXS-5505 (30 μM) or PXS-5120 (100 nM) was added to medium at 48-h intervals for the duration. At the end point, matrices were fixed in 10% formalin and processed for histological analysis by H&E and panCK staining. The invasive index was measured in three representative areas per matrix and the number of invaded cells per mm^2 was calculated. No statistical methods were used to predetermine sample sizes but our sample sizes are similar to those reported in previous publications[36],[39].
Extended Data Fig. 4 PXS-5505 inhibits collagen cross-linking by PDAC CAFs in vitro resulting in decreased cancer cell invasion. a. Schematic of organotypic matrix remodeling assay whereby CAFs are embedded into a 3D collagen matrix and growth media supplemented with or without PXS-5505 to inhibit lysyl oxidase family activity b. Chemical structures of lysyl oxidase family catalyzed hydroxyallysine or allysine residues and the subsequent divalent and trivalent bonds that are formed that can be quantified by mass spectrometry. c. Representative images of 3D organotypic matrix contraction by human pancreatic cancer CAFs at days 2, 6 and 12 in the absence (gray) and presence (pink) of PXS-5505 (30 µM). Scale bars = 5 mm. […] Data presented as mean values +/− SD. d. […] Data presented as mean values +/− SD. Relative fold expression of LOXL family members compared to LOX were determined by 2^–∆∆Ct approach. f. […] Comparison of measured area of matrices between control, PXS-5120 and PXS-5505 treatment groups (n = 3) over time. i. […] Representative images of invasion of KPC cancer cells into a contracted organotypic matrix as determined by H&E staining. […]

[2] = listed as value 30 (unit not given)
[3] = listed as value 60 (unit not given)
[4] = listed as value 300 (unit not given)

SMILES | processing as a substrate by SSAO/VAP-1 (SSAO) | Turnover by SSAO as measured by H2O2 release, mean (SSAO; [2]) | Turnover by SSAO as measured by H2O2 release, mean (SSAO; [3]) | Turnover by SSAO as measured by H2O2 release, mean (SSAO; [4]) | processing as a substrate by DAO (DAO) | Turnover by DAO as measured by H2O2 release, mean (DAO; [2]) | Turnover by DAO as measured by H2O2 release, mean (DAO; [3]) | Turnover by DAO as measured by H2O2 release, mean (DAO; [4]) | stiffening of 3D collagen matrices [1] | CC invasion (KPC CCs)
N#CCCN [BAPN, β-aminopropionitrile, reference compound] | oxidized | 1.3236 | 1.5791 | 2.4689 | oxidized | 3.75 | 4.64 | 5.888 |  | 
Cc1c(-c2cccc(S(=O)(=O)N(C)C)c2)c2cc(C(=O)O)ccc2n1C/C(F)=C/CN [PXS-5120, reference compound] |  |  |  |  |  |  |  |  | does not significantly block stiffening | does not lead to decreased CC invasion

— article PMC10518255, “A first-in-class pan-lysyl oxidase inhibitor impairs stromal remodeling and enhances gemcitabine response and survival in pancreatic cancer” (Nature Cancer, 2023)
